# In ChEMBL document CHEMBL1154979 (J Med Chem, 2010):
# Active and inactive are the calls of the source. No cut-off for these calls is given here.
# Columns and labels:
# Type in all cases: cell-based
# Details in all cases: tested as the 125I-labelled form
# [1] = system: T1, Type-1 angiotensin II receptor (Homo sapiens), P30556 [N111G]; experiment: Binding affinity to Glu91-Met134 and Ala244-Met284 regions of human AT1 receptor N111G constitutively active mutant expressed in CHO cells after CNBr cleavage by photoaffinity labeling
# T1 sequence (whole entry): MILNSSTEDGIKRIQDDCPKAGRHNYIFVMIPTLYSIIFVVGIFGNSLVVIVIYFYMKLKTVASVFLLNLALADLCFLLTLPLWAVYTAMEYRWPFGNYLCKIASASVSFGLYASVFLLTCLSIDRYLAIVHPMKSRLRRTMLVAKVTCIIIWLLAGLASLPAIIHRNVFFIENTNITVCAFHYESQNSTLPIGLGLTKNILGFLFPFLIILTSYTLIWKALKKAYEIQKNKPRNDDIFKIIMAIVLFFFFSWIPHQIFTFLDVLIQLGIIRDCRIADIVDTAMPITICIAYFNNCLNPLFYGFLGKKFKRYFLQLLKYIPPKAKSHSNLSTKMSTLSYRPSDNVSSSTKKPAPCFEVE
# [2] = system: T1, Type-1 angiotensin II receptor (Homo sapiens), P30556 [N111G]; experiment: Binding affinity to Leu143-Met243 region of human AT1 receptor N111G constitutively active mutant expressed in CHO cells after PNGase-F cleavage by photoaffinity labeling
# [3] = system: T1, Type-1 angiotensin II receptor (Homo sapiens), P30556 [N111G]; experiment: Binding affinity to human AT1 receptor N111G constitutively active mutant expressed in CHO cells by photoaffinity labeling relative to untreated control
# [4] = system: T1, Type-1 angiotensin II receptor (Homo sapiens), P30556 [N111G]; experiment: Binding affinity to Thr61-Lys102 and Ala21-Lys58 regions of human AT1 receptor N111G constitutively active mutant expressed in CHO cells after Endo-Lys-C cleavage by photoaffinity labeling
# [5] = system: T1, Type-1 angiotensin II receptor (Homo sapiens), P30556 [N111G]; experiment: Binding affinity to Ile2-Met30 region of human AT1 receptor N111G constitutively active mutant expressed in CHO cells after PNGase-F cleavage by photoaffinity labeling
SMILES,Activity [1],Activity [2],Activity [3],Activity [4],Activity [5]
CC[C@H](C)[C@H](NC(=O)[C@H](Cc1ccc(I)cc1)NC(=O)[C@H](Cc1ccc(C2(C(F)(F)F)N=N2)cc1)NC(=O)[C@H](CCCNC(=N)N)NC(=O)CNC)C(=O)N[C@@H](Cc1cnc[nH]1)C(=O)N1CCC[C@H]1C(=O)N[C@@H](Cc1ccccc1)C(=O)O,,Active,Active,,
CNCC(=O)N[C@@H](CCCNC(=N)N)C(=O)N[C@H](C(=O)N[C@@H](Cc1ccc(I)cc1)C(=O)N[C@@H](Cc1ccc(C2(C(F)(F)F)N=N2)cc1)C(=O)N[C@@H](Cc1cnc[nH]1)C(=O)N1CCC[C@H]1C(=O)N[C@@H](Cc1ccccc1)C(=O)O)C(C)C,Active,,Active,Active,Active
CC[C@H](C)[C@H](NC(=O)[C@H](Cc1ccc(I)cc1)NC(=O)[C@H](Cc1ccc(C(=O)c2ccccc2)cc1)NC(=O)[C@H](CCCNC(=N)N)NC(=O)CNC)C(=O)N[C@@H](Cc1cnc[nH]1)C(=O)N1CCC[C@H]1C(=O)N[C@@H](Cc1ccccc1)C(=O)O,,Active,Active,,

# Further lines, results first:
Activity [1],Activity [2],Activity [3],Activity [4],Activity [5],SMILES
Active,Active,Active,,,CC[C@H](C)[C@H](NC(=O)[C@H](Cc1ccc(I)cc1)NC(=O)[C@@H](NC(=O)[C@H](Cc1ccc(C(=O)c2ccccc2)cc1)NC(=O)CNC)C(C)C)C(=O)N[C@@H](Cc1cnc[nH]1)C(=O)N1CCC[C@H]1C(=O)N[C@@H](Cc1ccccc1)C(=O)O
Active,,Active,Active,Active,CNCC(=O)N[C@@H](CCCNC(=N)N)C(=O)N[C@H](C(=O)N[C@@H](Cc1ccc(I)cc1)C(=O)N[C@@H](Cc1ccc(C(=O)c2ccccc2)cc1)C(=O)N[C@@H](Cc1cnc[nH]1)C(=O)N1CCC[C@H]1C(=O)N[C@@H](Cc1ccccc1)C(=O)O)C(C)C
Active,Active,Active,,Active,CC[C@H](C)[C@H](NC(=O)[C@H](Cc1ccc(I)cc1)NC(=O)[C@@H](NC(=O)[C@H](CCCNC(=N)N)NC(=O)[C@@H](N)Cc1ccc(C(=O)c2ccccc2)cc1)C(C)C)C(=O)N[C@@H](Cc1cnc[nH]1)C(=O)N1CCC[C@H]1C(=O)N[C@@H](Cc1ccccc1)C(=O)O
